Our source for the IC50 values is patent US10508109B2 (priority 2015, dated 2019).

Assay [1] has as its system A549. Kind of assay: Cell-based assay, anti-proliferative activity (Cell Counting Kit-8, 72 hours). The following applies: Homo sapiens, read-out: A549 IC50. An outline of the steps:
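Cells were seeded in 96-well plates and exposed to candidate inhibitors. Cellular growth was then determined with the colorimetric kit, and IC50 values were calculated from the growth data.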

Assay [2] addresses SUV39H2 (Homo sapiens (Human), UniProt Q9H5I1). Nature of the assay: biochemical. The class given is biochemical. The following applies: 3H-SAM 100 nM, H3 Histone Peptide 350 nM, room temperature 3 hours. Here is the method: Assay buffer (4 μL) was added into all the wells, including test compound and control wells (except for Sinefungin control wells), using the Multidrop Combi. The plate was centrifuged at 1000 rpm for 1 min. […] SUV39H2 (8 μL, final conc: optimized for each lot of the enzyme based on specific activity) was added by using the Multidrop Combi. The assay plate was centrifuged at 1000 rpm for 1 min. Assay buffer was used as background control, and incubated at room temperature for 3 hours. The reaction was stopped with 20 μL of 2.5 mg/mL Streptavidin SPA beads (final conc. 50 μg/well) in buffer using the Multidrop Combi and centrifuged for 1 min. The plate was loaded into the Trilux-Microbeta counter and a delayed read of 10 hours was made. The radioactive signal was measured at 1 min/well. Sinefungin and the internal standard compound were used as tool compounds to determine assay performance.
• The following calculations were made using the obtained CPM raw data: Software used: XLFit from IDBS.
For each test plate the following results were calculated: • Average, Standard Deviation, and % CV of Background Controls • Average, Standard Deviation, and % CV of Positive Controls • Z′ value of the plate • IC50 values of standard and test compounds (in nM) • R^2 value of fitted concentration response curve • Hill slope coefficient of fitted concentration response curve • Signal to Noise Ratio

Setting [3] is: A549 cells, 72 hours exposure, Cell Counting Kit-8.

Where a name gives a salt, the structure may show the parent alone. Read-outs that look alike come from different tables or passages of the source.

Sequence of SUV39H2 (Q9H5I1 whole entry): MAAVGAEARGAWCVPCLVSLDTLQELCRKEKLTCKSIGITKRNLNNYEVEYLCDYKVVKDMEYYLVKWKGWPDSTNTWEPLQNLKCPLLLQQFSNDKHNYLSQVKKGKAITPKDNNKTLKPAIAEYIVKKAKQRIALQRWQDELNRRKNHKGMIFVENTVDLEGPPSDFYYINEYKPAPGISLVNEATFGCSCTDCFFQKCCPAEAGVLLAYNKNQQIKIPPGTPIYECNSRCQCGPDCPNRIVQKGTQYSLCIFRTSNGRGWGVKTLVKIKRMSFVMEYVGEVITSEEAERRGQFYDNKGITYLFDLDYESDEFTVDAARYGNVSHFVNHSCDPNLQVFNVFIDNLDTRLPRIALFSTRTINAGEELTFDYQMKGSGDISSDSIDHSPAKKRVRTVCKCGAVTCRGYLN

Turning to `COc1cc(OC)c(-c2cn3ccc(N4CCC[C@H](NCC5CCCCC5)C4)cc3n2)cc1Cl` [Example 455, (S)-1-(2-(5-chloro-2,4-dimethoxyphenyl)imidazo[1,2-a]pyridin-7-yl)-N-(cyclohexylmethyl)piperidin-3-amine], the results for the half-maximal inhibitory concentration (IC50) in assay [1] (setting [3]) and in assay [2] were 920 nM and 12.3 nM, respectively.

Consider `COc1cc(OC)c(-c2cn3ccc(N4CCN(c5ccnc(N6CCC(O)CC6)n5)CC4)cc3n2)cc1Cl` [Example 332, 1-(4-(4-(2-(5-chloro-2,4-dimethoxyphenyl)imidazo[1,2-a]pyridin-7-yl)piperazin-1-yl)pyrimidin-2-yl)piperidin-4-ol], for which the IC50 in assay [1] (A549, 72 h) amounted to 910 nM; in assay [2] it was 21.6 nM.

As for `COc1cc(OC)c(-c2cn3ccc(N4CCN(c5nc(N)nc(NC(C)(C)C)n5)CC4)cc3n2)cc1Cl` [Example 446, N^2-(tert-butyl)-6-(4-(2-(5-chloro-2,4-dimethoxyphenyl)imidazo[1,2-a]pyridin-7-yl)piperazin-1-yl)-1,3,5-triazine-2,4-diamine], the IC50 in assay [1] (setting [3]) stood at 430 nM; in assay [2], 97.4 nM.

In the case of `COc1cc(OC)c(-c2cn3ccc(N4CCN(c5nccc(N6CCNCC6)n5)CC4)cc3n2)cc1Cl` [Example 359, 2-(5-chloro-2,4-dimethoxyphenyl)-7-(4-(4-(piperazin-1-yl)pyrimidin-2-yl)piperazin-1-yl)imidazo[1,2-a]pyridine dihydrochloride], the IC50 in assay [1] (A549, 72 h) was determined as 400 nM; in assay [2], 12.2 nM.

On to `COc1cc(OC)c(-c2cn3ccc(N4CC[C@H](NC(C)c5ccncc5)C4)cc3n2)cc1Cl` (stereo partly drawn) [Example 407, (3S)-1-(2-(5-chloro-2,4-dimethoxyphenyl)imidazo[1,2-a]pyridin-7-yl)-N-(1-(pyridin-4-yl)ethyl)pyrrolidin-3-amine dihydrochloride], for which the IC50 in assay [1] (A549, 72 h) was 950 nM; in assay [2], 7.7 nM.

`COc1cc(OC)c(-c2cn3ccc(N4CCC(CNC(=O)OC(C)(C)C)C4)cc3n2)cc1Cl` (stereo not shown) [Example 459, tert-butyl ((1-(2-(5-chloro-2,4-dimethoxyphenyl)imidazo[1,2-a]pyridin-7-yl)pyrrolidin-3-yl)methyl)carbamate]: the IC50 in assay [1] (setting [3]) turned out to be 990 nM; in assay [2], 7.69 nM.

`COc1cc(OC)c(-c2cn3ccc(N[C@H]4C[C@H]5CC[C@@H](C4)N5C(=O)OC(C)C)cc3n2)cc1Cl` [Example 391, (1R,3r,5S)-isopropyl 3-((2-(5-chloro-2,4-dimethoxyphenyl)imidazo[1,2-a]pyridin-7-yl)amino)-8-azabicyclo[3.2.1]octane-8-carboxylate]: the IC50 in assay [1] (setting [3]) turned out to be 990 nM; in assay [2], 79.3 nM.

As to `COc1cc(OC)c(-c2cn3ccc(N[C@H]4CC[C@H](Nc5nccc(N6CCOCC6)n5)CC4)cc3n2)cc1Cl` [Example 406, (1r,4r)-N^1-(2-(5-chloro-2,4-dimethoxyphenyl)imidazo[1,2-a]pyridin-7-yl)-N^4-(4-morpholinopyrimidin-2-yl)cyclohexane-1,4-diamine], the IC50 in assay [1] (setting [3]) was found to be 740 nM; in assay [2], 37 nM.

For the compound `COc1cc(OC)c(-c2cn3ccc(N4CCCN(CC5CCCCC5)CC4)cc3n2)cc1Cl` [Example 435, 2-(5-chloro-2,4-dimethoxyphenyl)-7-(4-(cyclohexylmethyl)-1,4-diazepan-1-yl)imidazo[1,2-a]pyridine], the IC50 in assay [1] (setting [3]) came to 650 nM; in assay [2], 6.46 nM.

As to `COc1cc(OC)c(-c2cn3ccc(N[C@H]4CC[C@@H](NCc5cccc(C#N)c5)CC4)cc3n2)cc1Cl` [Example 371, 3-(((cis-4-((2-(5-chloro-2,4-dimethoxyphenyl)imidazo[1,2-a]pyridin-7-yl)amino)cyclohexyl)amino)methyl)benzonitrile], the IC50 in assay [1] (setting [3]) was found to be 690 nM; in assay [2], 16.1 nM.

With `COc1cc(OC)c(-c2cn3ccc(N4CCN(C(=O)CCCCNC(=O)OC(C)(C)C)CC4)cc3n2)cc1Cl` [Example 315, tert-butyl (5-(4-(2-(5-chloro-2,4-dimethoxyphenyl)imidazo[1,2-a]pyridin-7-yl)piperazin-1-yl)-5-oxopentyl)carbamate], the figures for the IC50 in assay [1] (setting [3]) and in assay [2] were 4400 nM and 10.5 nM, respectively.

Consider `COc1cc(OC)c(-c2cn3ccc(N4CCN(c5cc(N6CCOCC6)nc(N)n5)CC4)cc3n2)cc1Cl` [Example 384, 4-(4-(2-(5-chloro-2,4-dimethoxyphenyl)imidazo[1,2-a]pyridin-7-yl)piperazin-1-yl)-6-morpholinopyrimidin-2-amine], for which the results for the IC50 in assay [1] (setting [3]) and in assay [2] were 940 nM and 10.9 nM, respectively.

Consider `COc1cc(OCCCN(C)C)c(-c2cn3ccc(N4CC[C@H](N)C4)cc3n2)cc1Cl` [Example 432, (S)-1-(2-(5-chloro-2-(3-(dimethylamino)propoxy)-4-methoxyphenyl)imidazo[1,2-a]pyridin-7-yl)pyrrolidin-3-amine], for which the IC50 in assay [1] (setting [3]) was determined as 710 nM; in assay [2], 31.8 nM.

For the compound `COc1cc(OC)c(-c2cn3ccc(N4CCN(c5ccnc(N6CCC(N)CC6)n5)CC4)cc3n2)cc1Cl` [Example 338, 1-(4-(4-(2-(5-chloro-2,4-dimethoxyphenyl)imidazo[1,2-a]pyridin-7-yl)piperazin-1-yl)pyrimidin-2-yl)piperidin-4-amine], the half-inhibitory concentration (IC50) in assay [1] (setting [3]) is 1200 nM; in assay [2] it was 17 nM.

With `COc1cc(OC)c(-c2cn3ccc(N[C@H]4C[C@H]5CC[C@@H](C4)N5CC4CCN(C(=O)OC(C)(C)C)CC4)cc3n2)cc1Cl` [Example 447, tert-butyl 4-(((1R,3r,5S)-3-((2-(5-chloro-2,4-dimethoxyphenyl)imidazo[1,2-a]pyridin-7-yl)amino)-8-azabicyclo[3.2.1]octan-8-yl)methyl)piperidine-1-carboxylate], the IC50 in assay [1] (setting [3]) was found to be 440 nM; in assay [2], 85.2 nM.

Take `COc1cc(OC)c(-c2cn3ccc(NC4CCN(Cc5csc([N+](=O)[O-])c5)CC4)cc3n2)cc1Cl` [Example 324, 2-(5-chloro-2,4-dimethoxyphenyl)-N-(1-((5-nitrothiophen-3-yl)methyl)piperidin-4-yl)imidazo[1,2-a]pyridin-7-amine]: the figures for the IC50 in assay [1] (setting [3]) and in assay [2] were 590 nM and 33.9 nM, respectively.

With `COc1cc(OC)c(-c2cn3ccc(N4CCN(c5nccc(N6CCC(N)CC6)n5)CC4)cc3n2)cc1Cl` [Example 437, 1-(2-(4-(2-(5-chloro-2,4-dimethoxyphenyl)imidazo[1,2-a]pyridin-7-yl)piperazin-1-yl)pyrimidin-4-yl)piperidin-4-amine], the concentration for half-maximal inhibition (IC50) came out at 740 nM in assay [1] (setting [3]) and 15.9 nM in assay [2].

For `COc1cc(OC)c(-c2cn3ccc(N4CCN(c5ccnc(NC6CC6)n5)CC4)cc3n2)cc1Cl` [Example 331, 4-(4-(2-(5-chloro-2,4-dimethoxyphenyl)imidazo[1,2-a]pyridin-7-yl)piperazin-1-yl)-N-cyclopropylpyrimidin-2-amine], the IC50 in assay [1] (setting [3]) was found to be 820 nM; in assay [2] it was 56.9 nM.

Consider `COc1cc(OC(F)F)c(-c2cn3ccc(N4CC[C@H](NC(=O)OC(C)(C)C)C4)cc3n2)cc1Cl` [Example 408, (S)-tert-butyl (1-(2-(5-chloro-2-(difluoromethoxy)-4-methoxyphenyl)imidazo[1,2-a]pyridine-7-yl)pyrrolidin-3-yl)carbamate], for which the IC50 in assay [1] (setting [3]) was 560 nM; in assay [2], 12.7 nM.

On to `COc1cc(OC)c(-c2cn3ccc(N4CCCN(CC5CCCC5)CC4)cc3n2)cc1Cl` [Example 442, 2-(5-chloro-2,4-dimethoxyphenyl)-7-(4-(cyclopentylmethyl)-1,4-diazepan-1-yl)imidazo[1,2-a]pyridine], for which the figures for the IC50 in assay [1] (setting [3]) and in assay [2] were 730 nM and 13.9 nM, respectively.
